Assay results reported in the NIST ThermoML archive (doi:10.1016/j.fluid.2008.07.006).
± gives the expanded uncertainty stated by the source.

Key:
[1] = xn = mol fraction of the nth substance listed; conditions: 101 kPa, Fluid (supercritical or subcritical phases)
[2] = cn = amount concentration of the nth substance listed, in mol/dm3; conditions: 101 kPa, Liquid, Direct current cell with electrodes
[3] = 101.33 kPa, Liquid

CCn1cc[n+](C)c1.N#CN=C=[N-] [1-ethyl-3-methylimidazolium dicyanamide] + O
Conditions | binary diffusion coefficient, 303.2 K [m2/s] | binary diffusion coefficient, 308.2 K [m2/s] | binary diffusion coefficient, 313.2 K [m2/s] | binary diffusion coefficient, 318.2 K [m2/s] | binary diffusion coefficient, 323.2 K [m2/s] | molar conductivity, 303.2 K [S·m2/mol] | molar conductivity, 308.2 K [S·m2/mol] | molar conductivity, 313.2 K [S·m2/mol] | molar conductivity, 318.2 K [S·m2/mol] | molar conductivity, 323.2 K [S·m2/mol]
[1], x1 = 0 | 1.25e-09 | 1.41e-09 | 1.54e-09 | 1.71e-09 | 1.85e-09 | – | – | – | – | –
[2], c1 = 1.2e-09 | – | – | – | – | – | 0.0095 ± 0.0004 | 0.0103 ± 0.0004 | 0.011 ± 0.0004 | 0.0123 ± 0.0005 | 0.0133 ± 0.0005
[2], c1 = 6.6e-09 | – | – | – | – | – | 0.009 ± 0.0004 | 0.0098 ± 0.0004 | 0.0108 ± 0.0004 | 0.0118 ± 0.0005 | 0.0128 ± 0.0005
[2], c1 = 1.19e-08 | – | – | – | – | – | 0.0087 ± 0.0004 | 0.0095 ± 0.0004 | 0.0105 ± 0.0004 | 0.0113 ± 0.0005 | 0.0125 ± 0.0005
[2], c1 = 2.28e-08 | – | – | – | – | – | 0.0083 ± 0.0003 | 0.0092 ± 0.0004 | 0.01 ± 0.0004 | 0.0109 ± 0.0004 | 0.0119 ± 0.0005
[2], c1 = 4.15e-08 | – | – | – | – | – | 0.0079 ± 0.0003 | 0.0088 ± 0.0004 | 0.0095 ± 0.0004 | 0.0103 ± 0.0004 | 0.0114 ± 0.0005

CCn1cc[n+](C)c1.F[B-](F)(F)F [1-ethyl-3-methylimidazolium tetrafluoroborate] + O
Conditions | binary diffusion coefficient, 303.2 K [m2/s] | binary diffusion coefficient, 308.2 K [m2/s] | binary diffusion coefficient, 313.2 K [m2/s] | binary diffusion coefficient, 318.2 K [m2/s] | binary diffusion coefficient, 323.2 K [m2/s] | molar conductivity, 303.2 K [S·m2/mol] | molar conductivity, 308.2 K [S·m2/mol] | molar conductivity, 313.2 K [S·m2/mol] | molar conductivity, 318.2 K [S·m2/mol] | molar conductivity, 323.2 K [S·m2/mol]
[1], x1 = 0 | 1.5e-09 | 1.57e-09 | 1.69e-09 | 1.88e-09 | 2.01e-09 | – | – | – | – | –
[2], c1 = 1e-09 | – | – | – | – | – | 0.0119 ± 0.0005 | 0.013 ± 0.0005 | 0.0139 ± 0.0006 | 0.0149 ± 0.0006 | 0.0162 ± 0.0007
[2], c1 = 5.5e-09 | – | – | – | – | – | 0.0111 ± 0.0004 | 0.0121 ± 0.0005 | 0.0131 ± 0.0005 | 0.0142 ± 0.0006 | 0.0153 ± 0.0006
[2], c1 = 1.32e-08 | – | – | – | – | – | 0.0105 ± 0.0004 | 0.0116 ± 0.0005 | 0.0125 ± 0.0005 | 0.0136 ± 0.0005 | 0.0146 ± 0.0006
[2], c1 = 2.22e-08 | – | – | – | – | – | 0.0101 ± 0.0004 | 0.0111 ± 0.0004 | 0.012 ± 0.0005 | 0.013 ± 0.0005 | 0.014 ± 0.0006
[2], c1 = 4.15e-08 | – | – | – | – | – | 0.009 ± 0.0004 | 0.0099 ± 0.0004 | 0.0108 ± 0.0004 | 0.0117 ± 0.0005 | 0.0127 ± 0.0005

CCn1cc[n+](C)c1.O=S(=O)([O-])C(F)(F)F [1-ethyl-3-methylimidazolium trifluoromethanesulfonate]
[3]
Conditions | mass density [kg/m3]
303.2 K | 1377.3 ± 4.4
308.2 K | 1373.3 ± 4.4
313.2 K | 1369.3 ± 4.4
318.2 K | 1365.3 ± 4.3
323.2 K | 1361.2 ± 4.3

CCn1cc[n+](C)c1.F[B-](F)(F)F [1-ethyl-3-methylimidazolium tetrafluoroborate]
[3]
Conditions | mass density [kg/m3]
303.2 K | 1278.7 ± 6.4
308.2 K | 1275 ± 6.4
313.2 K | 1271.4 ± 6.3
318.2 K | 1267.8 ± 6.3
323.2 K | 1264.2 ± 6.2

CCn1cc[n+](C)c1.N#CN=C=[N-] [1-ethyl-3-methylimidazolium dicyanamide]
[3]
Conditions | mass density [kg/m3]
303.2 K | 1105.8 ± 0.6
308.2 K | 1102.6 ± 0.6
313.2 K | 1099.4 ± 0.6
318.2 K | 1096.2 ± 0.6
323.2 K | 1093 ± 0.6

CCOS(=O)(=O)[O-].CCn1cc[n+](C)c1 [1-ethyl-3-methylimidazolium ethyl sulfate] + O
Conditions | binary diffusion coefficient, 303.2 K [m2/s] | binary diffusion coefficient, 308.2 K [m2/s] | binary diffusion coefficient, 313.2 K [m2/s] | binary diffusion coefficient, 318.2 K [m2/s] | binary diffusion coefficient, 323.2 K [m2/s] | molar conductivity, 303.2 K [S·m2/mol] | molar conductivity, 308.2 K [S·m2/mol] | molar conductivity, 313.2 K [S·m2/mol] | molar conductivity, 318.2 K [S·m2/mol] | molar conductivity, 323.2 K [S·m2/mol]
[1], x1 = 0 | 1.04e-09 | 1.19e-09 | 1.4e-09 | 1.5e-09 | 1.64e-09 | – | – | – | – | –
[2], c1 = 1.6e-09 | – | – | – | – | – | 0.008 ± 0.0003 | 0.0089 ± 0.0004 | 0.0097 ± 0.0004 | 0.0106 ± 0.0004 | 0.0116 ± 0.0005
[2], c1 = 4.6e-09 | – | – | – | – | – | 0.0076 ± 0.0003 | 0.0084 ± 0.0003 | 0.0092 ± 0.0004 | 0.0101 ± 0.0004 | 0.011 ± 0.0004
[2], c1 = 8.6e-09 | – | – | – | – | – | 0.0074 ± 0.0003 | 0.0081 ± 0.0003 | 0.0089 ± 0.0004 | 0.0097 ± 0.0004 | 0.0106 ± 0.0004
[2], c1 = 1.72e-08 | – | – | – | – | – | 0.0071 ± 0.0003 | 0.0079 ± 0.0003 | 0.0086 ± 0.0003 | 0.0095 ± 0.0004 | 0.0102 ± 0.0004
[2], c1 = 3.58e-08 | – | – | – | – | – | 0.0065 ± 0.0003 | 0.0073 ± 0.0003 | 0.0082 ± 0.0003 | 0.0091 ± 0.0004 | 0.0098 ± 0.0004

CCOS(=O)(=O)[O-].CCn1cc[n+](C)c1 [1-ethyl-3-methylimidazolium ethyl sulfate]
[3]
Conditions | mass density [kg/m3]
303.2 K | 1232.7 ± 1.7
308.2 K | 1229.4 ± 1.7
313.2 K | 1226.2 ± 1.6
318.2 K | 1222.9 ± 1.6
323.2 K | 1219.7 ± 1.6

CCn1cc[n+](C)c1.COCCOCCOS(=O)(=O)[O-] [1-ethyl-3-methylimidazolium 2-(2-methoxyethoxy) ethylsulfate]
[3]
Conditions | mass density [kg/m3]
303.2 K | 1233.4 ± 3
308.2 K | 1230 ± 2.9
313.2 K | 1226.6 ± 2.9
318.2 K | 1223.3 ± 2.9
323.2 K | 1219.9 ± 2.9

F[B-](F)(F)F.[Li+] [lithium fluoroborate] + O
molar conductivity [S·m2/mol], [2]
Conditions | 303.2 K | 308.2 K | 313.2 K | 318.2 K | 323.2 K
c1 = 3e-09 | 0.0117 ± 0.0005 | 0.0126 ± 0.0005 | 0.0134 ± 0.0005 | 0.0144 ± 0.0006 | 0.0158 ± 0.0006
c1 = 1.11e-08 | 0.0111 ± 0.0004 | 0.0122 ± 0.0005 | 0.0129 ± 0.0005 | 0.0139 ± 0.0006 | 0.0155 ± 0.0006
c1 = 2.73e-08 | 0.0106 ± 0.0004 | 0.0119 ± 0.0005 | 0.0125 ± 0.0005 | 0.0135 ± 0.0005 | 0.0152 ± 0.0006
c1 = 4.81e-08 | 0.0103 ± 0.0004 | 0.0115 ± 0.0005 | 0.0121 ± 0.0005 | 0.0131 ± 0.0005 | 0.0149 ± 0.0006
c1 = 7.55e-08 | 0.01 ± 0.0004 | 0.0112 ± 0.0005 | 0.0118 ± 0.0005 | 0.0127 ± 0.0005 | 0.0145 ± 0.0006

CCn1cc[n+](C)c1.O=S(=O)([O-])C(F)(F)F [1-ethyl-3-methylimidazolium trifluoromethanesulfonate] + O
Conditions | binary diffusion coefficient, 303.2 K [m2/s] | binary diffusion coefficient, 308.2 K [m2/s] | binary diffusion coefficient, 313.2 K [m2/s] | binary diffusion coefficient, 318.2 K [m2/s] | binary diffusion coefficient, 323.2 K [m2/s] | molar conductivity, 303.2 K [S·m2/mol] | molar conductivity, 308.2 K [S·m2/mol] | molar conductivity, 313.2 K [S·m2/mol] | molar conductivity, 318.2 K [S·m2/mol] | molar conductivity, 323.2 K [S·m2/mol]
[1], x1 = 0 | 1.16e-09 | 1.27e-09 | 1.51e-09 | 1.66e-09 | 1.8e-09 | – | – | – | – | –
[2], c1 = 1.2e-09 | – | – | – | – | – | 0.0083 ± 0.0003 | 0.0093 ± 0.0004 | 0.0101 ± 0.0004 | 0.011 ± 0.0004 | 0.012 ± 0.0005
[2], c1 = 3.8e-09 | – | – | – | – | – | 0.0079 ± 0.0003 | 0.0088 ± 0.0004 | 0.0097 ± 0.0004 | 0.0106 ± 0.0004 | 0.0114 ± 0.0005
[2], c1 = 8.7e-09 | – | – | – | – | – | 0.0077 ± 0.0003 | 0.0085 ± 0.0003 | 0.0093 ± 0.0004 | 0.0102 ± 0.0004 | 0.0111 ± 0.0004
[2], c1 = 1.86e-08 | – | – | – | – | – | 0.0073 ± 0.0003 | 0.008 ± 0.0003 | 0.0088 ± 0.0004 | 0.0095 ± 0.0004 | 0.0103 ± 0.0004
[2], c1 = 3.19e-08 | – | – | – | – | – | 0.0069 ± 0.0003 | 0.0077 ± 0.0003 | 0.0084 ± 0.0003 | 0.0092 ± 0.0004 | 0.01 ± 0.0004

CCn1cc[n+](C)c1.COCCOCCOS(=O)(=O)[O-] [1-ethyl-3-methylimidazolium 2-(2-methoxyethoxy) ethylsulfate] + O
Conditions | binary diffusion coefficient, 303.2 K [m2/s] | binary diffusion coefficient, 308.2 K [m2/s] | binary diffusion coefficient, 313.2 K [m2/s] | binary diffusion coefficient, 318.2 K [m2/s] | binary diffusion coefficient, 323.2 K [m2/s] | molar conductivity, 303.2 K [S·m2/mol] | molar conductivity, 308.2 K [S·m2/mol] | molar conductivity, 313.2 K [S·m2/mol] | molar conductivity, 318.2 K [S·m2/mol] | molar conductivity, 323.2 K [S·m2/mol]
[1], x2 = 0 | 9.95e-10 | 1.06e-09 | 1.27e-09 | 1.32e-09 | 1.51e-09 | – | – | – | – | –
[2], c1 = 9e-10 | – | – | – | – | – | 0.0074 ± 0.0004 | 0.0081 ± 0.0005 | 0.009 ± 0.0005 | 0.0098 ± 0.0006 | 0.0107 ± 0.0006
[2], c1 = 3.9e-09 | – | – | – | – | – | 0.0067 ± 0.0004 | 0.0075 ± 0.0005 | 0.0082 ± 0.0005 | 0.0091 ± 0.0005 | 0.0097 ± 0.0006
[2], c1 = 1.06e-08 | – | – | – | – | – | 0.0062 ± 0.0004 | 0.007 ± 0.0004 | 0.0077 ± 0.0005 | 0.0084 ± 0.0005 | 0.0091 ± 0.0005
[2], c1 = 1.82e-08 | – | – | – | – | – | 0.006 ± 0.0004 | 0.0067 ± 0.0004 | 0.0074 ± 0.0004 | 0.0081 ± 0.0005 | 0.0088 ± 0.0005
[2], c1 = 2.57e-08 | – | – | – | – | – | 0.0059 ± 0.0004 | 0.0065 ± 0.0004 | 0.0072 ± 0.0004 | 0.0076 ± 0.0005 | 0.0083 ± 0.0005
